Experimental data taken from patent publication US11446298B2, “Pyrimidine derivatives” (Idorsia Pharmaceuticals Ltd, priority 2017, dated 2022).

Tests used:
Assay type in all cases: cell-based
[1] = biological target: T1, PTGER2 (EP2) (Homo sapiens, UniProt P43116); assay: hEP2 b-Arrestin Assay (PathHunter HEK 293 PTGER2 b-arrestin cells, PGE2 5 μM); conditions: antagonistic activity, beta-arrestin assay, HEK 293 PTGER2 cells, PGE2 5 μM (EC80); read-out: hEP2 b-arr IC50
T1 construct: host or cells: HEK 293 (PathHunter, stably transfected)
T1 sequence (P43116 whole entry): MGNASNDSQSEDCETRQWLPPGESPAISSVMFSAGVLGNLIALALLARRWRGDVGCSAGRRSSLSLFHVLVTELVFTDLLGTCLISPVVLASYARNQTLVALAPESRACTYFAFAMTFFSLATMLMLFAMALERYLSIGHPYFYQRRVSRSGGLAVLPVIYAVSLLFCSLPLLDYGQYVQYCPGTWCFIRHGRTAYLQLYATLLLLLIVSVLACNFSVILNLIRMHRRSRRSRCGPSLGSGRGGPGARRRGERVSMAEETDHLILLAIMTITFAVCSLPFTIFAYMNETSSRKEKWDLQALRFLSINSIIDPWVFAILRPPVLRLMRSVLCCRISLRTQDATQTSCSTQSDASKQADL
How it was run: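 PathHunter enzyme-fragment complementation in HEK 293 cells: compounds (10 μM-2 nM or 1 μM-0.2 nM) pre-incubated 15 min at 37 °C, then 5 μM PGE2 (EC80) for 120 min at 37 °C. Chemiluminescence read after 1 h detection; IC50 from duplicate dose-response fits, means of repeats.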

[2] = biological target: T2, PTGER4 (EP4) (Homo sapiens, UniProt P35408); assay: hEP4 b-Arrestin Assay (PathHunter HEK 293 PTGER4 b-arrestin cells, PGE2 20 nM); conditions: antagonistic activity, beta-arrestin assay, HEK 293 PTGER4 cells, PGE2 20 nM (EC80); read-out: hEP4 b-arr IC50
T2 construct: host or cells: HEK 293 (PathHunter, stably transfected)
T2 sequence (P35408 whole entry): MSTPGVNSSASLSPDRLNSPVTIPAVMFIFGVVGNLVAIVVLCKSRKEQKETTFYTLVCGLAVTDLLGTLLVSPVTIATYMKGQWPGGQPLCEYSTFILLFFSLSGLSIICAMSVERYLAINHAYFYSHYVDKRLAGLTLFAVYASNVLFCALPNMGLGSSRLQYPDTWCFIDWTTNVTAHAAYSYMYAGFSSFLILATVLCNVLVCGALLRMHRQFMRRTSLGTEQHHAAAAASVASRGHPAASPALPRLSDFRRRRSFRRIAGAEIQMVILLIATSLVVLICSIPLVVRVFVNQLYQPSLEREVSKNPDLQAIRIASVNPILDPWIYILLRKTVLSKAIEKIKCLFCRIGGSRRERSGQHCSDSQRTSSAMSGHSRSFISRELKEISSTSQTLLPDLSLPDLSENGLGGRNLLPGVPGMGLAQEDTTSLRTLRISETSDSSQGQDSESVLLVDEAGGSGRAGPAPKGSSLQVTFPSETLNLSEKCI
How it was run: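 PathHunter HEK 293 EP4 b-arrestin enzyme-complementation cells preincubated 15 min at 37° C with compound (10 μM-2 nM or 1 μM-0.2 nM), then stimulated 120 min with 20 nM PGE2 (EC80). Chemiluminescence read; IC50 from duplicate % activity vs DMSO, one-site fit, averaged over repeats.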

[3] = biological target: T3, EP2 (Homo sapiens, UniProt P43116); assay: hEP2 cAMP Assay (SF295 glioblastoma cells, HTRF cAMP, PGE2 75 nM); conditions: antagonistic activity, PGE2 75 nM (EC80)
T3 construct: SF295 glioblastoma cells express high endogenous EP2 and no EP4; host or cells: SF295 glioblastoma cells
T3 sequence (P43116 whole entry): as the sequence (P43116 whole entry) above
How it was run: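 IC50 values derive from duplicate-point curves of percent cAMP relative to DMSO, read by HTRF (665/620 nm) against a cAMP calibrator. Compounds (30 μM to 0.01 nM ranges) were given 45 min at room temperature before 30 min with 75 nM PGE2, in EP2-only SF295 cells with 2 mM IBMX.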

[4] = biological target: T4, EP4 (Homo sapiens, UniProt P35408); assay: hEP4 cAMP Assay (BT549 breast cancer cells, HTRF cAMP, PGE2 6 nM); conditions: antagonistic activity, PGE2 6 nM (EC80)
T4 construct: BT549 breast cancer cells, express high endogenous EP4 levels and very low EP2 levels; host or cells: BT549 breast cancer cells
T4 sequence (P35408 whole entry): as the sequence (P35408 whole entry) above
How it was run: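 BT549 cells (endogenous EP4, very low EP2) in HBSS/20 mM HEPES/0.2% BSA/2 mM IBMX, pre-incubated 45 min RT with compound, then stimulated 30 min RT with PGE2 6 nM (EC80). cAMP read by HTRF competitive immunoassay (665/620 nm), converted via calibrator to % of DMSO control; IC50 from duplicate dose-response curves.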

Row | Compound | IC50 [1] [nM] | IC50 [2] [nM] | IC50 [3] [nM] | IC50 [4] [nM]
1 | CSc1cc(-c2cc(NCCc3cccc4c(C)cccc34)ncn2)ccc1C(=O)O [Example 173, 4-{6-[2-(5-Methyl-naphthalen-1-yl)-ethylamino]-pyrimidin-4-yl}-2-methylsulfanyl-benzoic acid] | 10 | 175 | 15 | 140
2 | CCOc1cc(-c2cc(NCCc3cccc4[nH]ccc34)ncn2)sc1C(=O)O [Example 39, 3-Ethoxy-5-{6-[2-(1H-indol-4-yl)-ethylamino]-pyrimidin-4-yl}-thiophene-2-carboxylic acid] | 81 | 386 | 50 | 101
3 | CCSc1cc(-c2cc(NCCc3ccc(C)c4ccccc34)ncn2)ccc1C(=O)O [Example 100, 2-Ethylsulfanyl-4-{6-[2-(4-methyl-naphthalen-1-yl)-ethylamino]-pyrimidin-4-yl}-benzoic acid] | 133 | 206 | 206 | 76
4 | CCOc1cc(-c2cc(NCCc3cccc4cc[nH]c34)ncn2)sc1-c1noc(=O)[nH]1 [Example 143, 3-(3-Ethoxy-5-{6-[2-(1H-indol-7-yl)-ethylamino]-pyrimidin-4-yl}-thiophen-2-yl)-[1,2,4]oxadiazol-5(4H)-one] | 31 | 21 | 90 | 105
5 | CCCCOc1cc(-c2cc(NCCc3c(OC)ccc4ccccc34)ncn2)ccc1C(=O)O [Example 119, 2-Butoxy-4-{6-[2-(2-methoxy-naphthalen-1-yl)-ethylamino]-pyrimidin-4-yl}-benzoic acid] | 18 | 222 | 12 | 200
6 | CCOc1cc(-c2cc(NCCc3c(OC)ccc4ccccc34)ncn2)ccc1CC(=O)O [Example 160, (2-Ethoxy-4-{6-[2-(2-methoxy-naphthalen-1-yl)-ethylamino]-pyrimidin-4-yl}-phenyl)-acetic acid] | 24 | 667 | 79 | 252
7 | CCOc1cc(-c2cc(NCCc3cccc4ccsc34)ncn2)sc1C(=O)O [Example 103, 5-[6-(2-Benzo[b]thiophen-7-yl-ethylamino)-pyrimidin-4-yl]-3-ethoxy-thiophene-2-carboxylic acid] | 33 | 314 | 79 | 73
8 | COc1ccc2ccccc2c1CCNc1cc(-c2ccc(-c3cc(O)no3)cc2)ncn1 [Example 134, 5-(4-{6-[2-(2-Methoxy-naphthalen-1-yl)-ethylamino]-pyrimidin-4-yl}-phenyl)-isoxazol-3-ol] | 8 | 280 | 91 | 351
9 | CCOc1cc(-c2cc(NCCc3cccc4cccnc34)ncn2)sc1-c1noc(=O)[nH]1 [Example 140, 3-{3-Ethoxy-5-[6-(2-quinolin-8-yl-ethylamino)-pyrimidin-4-yl]-thiophen-2-yl}-[1,2,4]oxadiazol-5(4H)-one] | 119 | 15 | 142 | 17
10 | CCOc1cc(-c2cc(NCCc3c(Cl)ccc4cccnc34)ncn2)sc1C(=O)O [Example 15, 5-{6-[2-(7-Chloro-quinolin-8-yl)-ethylamino]-pyrimidin-4-yl}-3-ethoxy-thiophene-2-carboxylic acid] | 27 | 192 | 25 | 171

Further lines, results first:

Row | IC50 [1] [nM] | IC50 [2] [nM] | IC50 [3] [nM] | IC50 [4] [nM] | Compound
11 | 8 | 29 | 24 | 29 | CCOc1cc(-c2cc(NCCc3c(OC)ccc4ccccc34)ncn2)ccc1-c1nnn[nH]1 [Example 125, {6-[3-Ethoxy-4-(1H-tetrazol-5-yl)-phenyl]-pyrimidin-4-yl}-[2-(2-methoxy-naphthalen-1-yl)-ethyl]amine]
12 | 32 | 19 | 24 | 29 | CCOc1cc(-c2cc(NCCc3ccc(Cl)c4ccccc34)ncn2)sc1C(=O)O [Example 62, 5-{6-[2-(4-Chloro-naphthalen-1-yl)-ethylamino]-pyrimidin-4-yl}-3-ethoxy-thiophene-2-carboxylic acid]
13 | 10 | 53 | 10 | 44 | CCOc1cc(-c2cc(NCCc3c(OCC)ccc4c3OCO4)ncn2)sc1C(=O)O [Example 45, 3-Ethoxy-5-{6-[2-(5-ethoxy-benzo[1,3]dioxol-4-yl)-ethylamino]-pyrimidin-4-yl}-thiophene-2-carboxylic acid]
14 | 110 | 311 | 85 | 244 | CCOc1cc(-c2cc(NCCc3cccc4cc[nH]c34)ncn2)sc1C(=O)O [Example 46, 3-Ethoxy-5-{6-[2-(1H-indol-7-yl)-ethylamino]-pyrimidin-4-yl}-thiophene-2-carboxylic acid]
15 | 29 | 499 | 25 | 309 | CCOc1cc(-c2cc(NCCc3c(C#N)ccc4ccccc34)ncn2)ccc1C(=O)O [Example 67, 4-{6-[2-(2-Cyano-naphthalen-1-yl)-ethylamino]-pyrimidin-4-yl}-2-ethoxy-benzoic acid]
16 | 19 | 9 | 21 | 7 | CCOc1cc(-c2cc(NCCc3ccc(C)c4ccccc34)ncn2)sc1C(=O)O [Example 18, 3-Ethoxy-5-{6-[2-(4-methyl-naphthalen-1-yl)-ethylamino]-pyrimidin-4-yl}-thiophene-2-carboxylic acid]
17 | 31 | 225 | 52 | 31 | CCOc1cc(-c2cc(NCCc3cccc4sccc34)ncn2)sc1C(=O)O [Example 108, 5-[6-(2-Benzo[b]thiophen-4-yl-ethylamino)-pyrimidin-4-yl]-3-ethoxy-thiophene-2-carboxylic acid]
18 | 186 | 48 | 526 | 28 | CCOc1cc(-c2cc(NCCc3cccc4ccncc34)ncn2)sc1-c1noc(=O)[nH]1 [Example 139, 3-{3-Ethoxy-5-[6-(2-isoquinolin-8-yl-ethylamino)-pyrimidin-4-yl]-thiophen-2-yl}-[1,2,4]oxadiazol-5(4H)-one]
19 | 13 | 34 | 8 | 1250 | CCc1nc(-c2cc(NCCc3c(OC)ccc4ccccc34)ncn2)sc1-c1noc(=O)[nH]1 [Example 190, 3-(4-Ethyl-2-{6-[2-(2-methoxy-naphthalen-1-yl)-ethylamino]-pyrimidin-4-yl}-thiazol-5-yl)-[1,2,4]oxadiazol-5(4H)-one]
20 | 12 | 308 | 5 | 53 | CCCc1cc(-c2cc(NCCc3c(OC)ccc4ccccc34)ncn2)ccc1C(=O)O [Example 121, 4-{6-[2-(2-Methoxy-naphthalen-1-yl)-ethylamino]-pyrimidin-4-yl}-2-propyl-benzoic acid]
